{
  "source": "patent US7884076B2",
  "about": "“Multipeptide regimen for the treatment of autistic spectrum, behavioral, emotional and visceral inflammation/autoimmune disorders” (The Trustees of Columbia University In the City of New York, priority 2003, dated 2011)",
  "key": {"[1]": {"test_system": "c-fos protein expression in brain regions", "experiment": "i.c.v. secretin, immunocytochemical detection of Fos in rat brain", "type": "in vivo, Sprague-Dawley rats", "conditions": "i.c.v. lateral ventricle, secretin vs PBS, perfused 3 hours after injection, region named in the value", "from_the_text": "The inventors obtained data in eight adult male Sprague-Dawley rats weighing 250-450 g. The rats were obtained from Hilltop Lab Animals, Inc. (Scottdale, Pa.). Under ketamine-xylazine anesthesia, using sterile techniques, a stainless steel guide cannula was stereotaxically inserted into the lateral ventricle of each rat. Each cannula was affixed in place with dental cement secured to the skull. To prevent clogging, a removable 27 gauge wire was inserted into the guide cannula. The placement of the cannula with reference to bregma was 1.4-mm lateral, 0.5-mm caudal, and a depth of 2.5 mm from the surface of the skull. The rats were allowed to recover for 4-5 days before the injections. During this time, both experimental and control rats were administered 0.01 ml/kg buprinorphine hydrochloride every 6 h to reduce pain. Injections were made in the lateral ventricle 5 mm from the surface of the skull, via a premeasured cannula attached by polyethylene tubing (PE20) to a 25 ILL Hamilton syringe containing either phosphate buffered saline (PBS) at pH 7.4 (n=4) or 10 ILg (n=1, pilot study) or 30 ILg (n=3) of secretin (Sigma, St. Louis, Mo.) dissolved in 5-10 ILL PBS. Secretin injections were performed between 11:00 A.M. and 1:00 P.M.\nThree hours after the i.c.v. injection, rats were administered sodium pentobarbital and perfused transcardially with heparinized, physiological saline followed by a 4% solution of paraformaldehyde in sodium phosphate buffer, pH 7.4. Whole brains were removed and blocked. Identical procedures were followed in control (n=4) and experimental animals (n=4). Tissue blocks were postfixed for 2-3 h in individual glass vials containing 4% paraformaldehyde in 0.1 M phosphate buffer (PBS, pH 7.4) and cryoprotected overnight at 4° C. in a solution of 10% sucrose in 0.1 M PBS. Frozen sections were cut on a sliding microtome at 30 JLm in the transverse plane and every fourth section was processed immunocytochemically for c-fos protein. Tissues from control and experimental animals were processed simultaneously in the same solutions in order to control for potential variability in immunocytochemistry. All incubations were carried out in separate test wells on a Thomas rotator table. Tissues were collected in 0.1 M PBS (pH 7.4) in spot test wells and washed in Tris-buffered saline (TBS) between each step. Nonspecific binding sites were blocked by preincubating for 30 min in bovine serum albumin (BSA), diluted 1:30 in TBS. Thereafter, sections were incubated overnight in primary whole rabbit antiserum raised against Fos protein diluted 1:10,000 (Oncogene, Cambridge, Mass.). The antisera were diluted in TBS containing 0.1% BSA, to which 0.25% Triton X-100 was added to facilitate antibody penetration. […]"}, "[2]": {"test_system": "IL10-/- colitis, colon inflammation", "experiment": "IL-10-/- mouse colitis (genetic IBD), hematoxylin/eosin gut histology", "type": "in vivo, C57B6 IL-10-/- mice", "conditions": "I.P. infusion by Alzet pump, vs saline", "from_the_text": "An acquired IBD model was created by inducing Colitis in male Sprague-Dawley rats (n=10) with trinitrobenzene sulfonic acid (TNBS) enema. A genetic IBD model was also created using IL-10 mutant mice. IBD criteria was confirmed in both groups by analyzing numbers of lymphocytes and epithelial destruction, and concomitant cerebral metabolic activity patterns comparing regional induction of c-fos gene expression. Control rats (n=11) and control mice (n=5) were also maintained.\nBoth the acquired IBD (rat) and genetic IBD (mouse) groups were treated with a combined peptide therapy consisting of co-administration of secretin and oxytocin. The acquired IBD subjects were administered a combination of secretin and oxytocin (40 μg/100 μl i.v.×7-20 days two weeks after disease induction). The genetic IBD subjects were administered a combination of secretin and oxytocin (40 μg/100 μl i.v.×7-20 days at age 18 weeks).\nData were obtained in 21 adult male Sprague-Dawley rats weighing 250-450 g and in 14 C57B6 IL-10−/− mice. Rats were obtained from Hilltop Lab Animals, Inc. (Scottdale, Pa.) and housed at the New York State Psychiatric Institute Housing Facility. Mice were obtained from Jackson Laboratory (Bar Harbor, Me.) and housed at the Eye Institute Annex of Columbia University.\nSprague-Dawley rats (n=10) were anesthetized with ketamine and xylazine and administered a solution of trinitrobenzene sulfonic acid (TNBS). 0.5 ml of TNBS solution (100 μl TNBS 5% solution; 150 μl PBS; 250 μl 100% ethanol) […] was administered intrarectally (Dohi T, et al., '00). Control rats (n=11) were injected with phosphate buffered saline (PBS) solution alone. On days 0, 3 and 7, the TNBS enema was administered via a glass microsyringe equipped with a gastric intubation needle. The animals were treated at the following time intervals: […] after the TNBS treatment in the Sprague-Dawley rats and at 18 weeks of age in the IL-10−/− mice.\nAnimals were anesthetized with xylazine (7-10 mg/kg I.P.) and ketamine (60 mg/kg I.P.) prior to implantation of an Alzet pump (model #2002). […]"}, "[3]": {"test_system": "c-fos protein expression in brain regions", "experiment": "i.c.v. secretin, immunocytochemical detection of Fos in rat brain", "type": "in vivo, Sprague-Dawley rats", "conditions": "secretin infusion into the fourth ventricle (Example 4)"}},
  "note": "“Also recorded” adds a separate entry of the source. No end group written: not given here.",
  "data": [
    {"substance": "secretin (HSDGTFTSELSRLRDSARLQRLLQGLV; not fully specified; ends and bridges not checked; UniProt P63298 33-59, looked up) [twenty-seven amino acid peptide and an enterogastrone; commercially available as SecreFlo]", "values": [
      {"measurement": "Fos immunoreactivity (c-fos expression) attenuated in brain regions", "setting": "[1]", "result": "attenuated Fos labeling; also recorded: attenuated c-fos expression of the parietal cortex"},
      {"measurement": "Fos immunoreactivity (c-fos expression) induced in brain regions", "setting": "[1]", "result": "c-fos induction in ependymal and subependymal nuclei lining the third ventricle; also recorded: most heavily concentrated along the medial bank of the prefrontal cortex, the orbitofrontal cortex, the anterior olfactory nucleus, and the piriform cortex; also recorded: Fos immunoreactivity in behavioral, endocrine, and autonomic areas; also recorded: activated the NTS and its projection fields in the reticular formation, diffuse projection systems and the mesolimbic network; also recorded: area postrema was also activated; also recorded: induced c-fos expression in the locus ceruleus (LC); also recorded: induced c-fos expression of ependymal (arrows) and subependymal cells lining the third ventricle (III); also recorded: induced c-fos expression of the piriform cortex"},
      {"measurement": "Fos immunoreactivity (c-fos expression) attenuated in brain regions", "setting": "[1]; listed as Secretin", "result": "attenuated Fos immunoreactivity in the dorsal periaqueductal gray, the intralamanar thalamus, the medial parvicellular hypothalamus, which synthesizes corticotrophin releasing hormone, the motor cortex, and the somatosensory and association areas of the parietal cortex"},
      {"measurement": "Fos immunoreactivity (c-fos expression) induced in brain regions", "setting": "[1]; listed as Secretin", "result": "altered numbers of Fos immunoreactive nuclei, mainly in visceral and limbic areas of the brain; also recorded: induced c-fos protein expression in the dorsal vagal complex, including the general afferent division of NTS and the dorsal motor nucleus; also recorded: Fos IR was concentrated throughout the area postrema and its subpostremal region of transition with the NTS and the commissural, medial parvicellular and periventricular subnuclei; also recorded: activated c-fos expression in cells in the intermediate reticular region of the lateral tegmental field; also recorded: induced c-fos expression in the locus ceruleus (FIG. 3), ventral periaqueductal gray, and the paraventricular thalamic nucleus; also recorded: the predominant labeling mapped to the paraventricular hypothalamic nucleus, mainly its periventricular region and magnocellular subdivision; also recorded: induced c-fos in the medial and central amygdala and the lateral septal complex"},
      {"measurement": "colon inflammation / inflammatory infiltrates, hematoxylin and eosin histology", "setting": "[2]", "result": "partial resolution of colon inflammation"},
      {"measurement": "colon inflammation / inflammatory infiltrates, hematoxylin and eosin histology", "setting": "[2]; listed as S", "result": "partial resolution of inflammation"},
      {"measurement": "colon inflammation / inflammatory infiltrates, hematoxylin and eosin histology", "setting": "[2]; listed as Secretin", "result": "dramatic increase in inflammatory infiltrate"},
      {"measurement": "brain regions activated", "setting": "[3]", "result": "activated comparable brain regions; viscerothalamic and HPA stress axes, amygdala, and ependyma"}
    ]}
  ]
}
